Test results as given in patent US10933056B2, “3-(1H-pyrazol-4-yl)pyridine allosteric modulators of the M4 muscarinic acetylcholine receptor” (Merck Sharp & Dohme Corp., priority 2015, dated 2021).

Target: T1, human M4 muscarinic acetylcholine receptor (Homo sapiens, UniProt P08173)
T1 construct: expressed in transfected cells; host or cells: CHO-K1
T1 sequence (P08173 1-479): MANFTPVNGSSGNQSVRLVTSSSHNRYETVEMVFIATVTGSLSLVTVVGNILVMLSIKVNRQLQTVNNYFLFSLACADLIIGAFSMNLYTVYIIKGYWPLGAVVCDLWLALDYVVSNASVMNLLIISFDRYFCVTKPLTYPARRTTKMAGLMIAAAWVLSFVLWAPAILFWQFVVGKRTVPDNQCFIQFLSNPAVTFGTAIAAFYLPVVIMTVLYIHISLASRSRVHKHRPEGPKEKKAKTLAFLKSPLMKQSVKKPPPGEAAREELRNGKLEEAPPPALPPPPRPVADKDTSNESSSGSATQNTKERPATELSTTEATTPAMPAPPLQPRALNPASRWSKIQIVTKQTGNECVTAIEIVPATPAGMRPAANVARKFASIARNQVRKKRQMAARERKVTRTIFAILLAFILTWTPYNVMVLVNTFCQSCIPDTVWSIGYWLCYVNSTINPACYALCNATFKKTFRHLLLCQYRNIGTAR
Assay: human FLIPR-based M4 PAM assay (calcium mobilization in CHO-K1 cells with human M4 receptor and Gαqi5)
Format: cell-based
Conditions: inflection point of dose response curve, acetylcholine at 20% of maximum response, FLIPR Tetra, read-out: M4 PAM IP
Method in brief: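 CHO-K1 cells stably expressing human M4 and chimeric Gαqi5 were dye-loaded ~1 h at 37° C. Test compound was added with fluorescence recorded 4 min, then acetylcholine at EC20 (sometimes a further EC70 addition) with reading 3.5 min. Value is the inflection point of a 4-parameter logistic fit.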

| Structure (SMILES) | EC50 [nM] |
| --- | --- |
| C#CCN1Cc2ncc(-c3nc(CF)ccc3-c3cnn(CC4(C)CCCC4)c3)cc2C1=O [Example 117, 3-(6-(Fluoromethyl)-3-(1-((1-methylcyclopentyl)methyl)-1H-pyrazol-4-yl)pyridin-2-yl)-6-(prop-2-yn-1-yl)-6,7-dihydro-5H-pyrrolo[3,4-b]pyridin-5-one] | 32 |
| CC1(Cn2cc(-c3cc4c(nc3-c3cnc5c(c3)C(=O)N(CCF)C5)CCC4)cn2)CCCC1 [Example 118A, 6-(2-fluoroethyl)-3-(3-(1-((1-methylcyclopentyl)methyl)-1H-pyrazol-4-yl)-6,7-dihydro-5H-cyclopenta[b]pyridin-2-yl)-6,7-dihydro-5H-pyrrolo[3,4-b]pyridin-5-one] | 50 |
| CC#CCN1Cc2ncc(-c3nc4c(cc3-c3cnn(CC5(C)CCCC5)c3)CCC4)cc2C1=O [Example 119, 6-(but-2-yn-1-yl)-3-(3-(1-((1-methylcyclopentyl)methyl)-1H-pyrazol-4-yl)-6,7-dihydro-5H-cyclopenta[b]pyridin-2-yl)-6,7-dihydro-5H-pyrrolo[3,4-b]pyridin-5-one] | 71 |
| CC(C)N1Cc2ncc(-c3nc(C#N)ccc3-c3cnn(CC4(C)CCCC4)c3)cc2C1=O [Example 121, 6-(6-isopropyl-5-oxo-6,7-dihydro-5H-pyrrolo[3,4-b]pyridin-3-yl)-5-(1-((1-methylcyclopentyl)methyl)-1H-pyrazol-4-yl)picolinonitrile] | 134 |
| CC#CCN1Cc2ncc(-c3nc(C#N)ccc3-c3cnn(CC4(C)CCCC4)c3)cc2C1=O [Example 122, 6-(6-(but-2-yn-1-yl)-5-oxo-6,7-dihydro-5H-pyrrolo[3,4-b]pyridin-3-yl)-5-(1-((1-methylcyclopentyl)methyl)-1H-pyrazol-4-yl)picolinonitrile] | 41 |
| C#CCN1Cc2ccc(-c3nc4c(cc3-c3cnn(CC5(C)CCCC5)c3)CCC4)cc2C1=O [Example 123, 6-(3-(1-((1-methylcyclopentyl)methyl)-1H-pyrazol-4-yl)-6,7-dihydro-5H-cyclopenta[b]pyridin-2-yl)-2-(prop-2-yn-1-yl)isoindolin-1-one] | 48 |
| CN1Cc2ccc(-c3nc4c(cc3-c3cnn(CC5(C)CCCC5)c3)CCC4=O)cc2C1=O [Example 124, 2-(2-Methyl-3-oxoisoindolin-5-yl)-3-(1-((1-methylcyclopentyl)methyl)-1H-pyrazol-4-yl)-5,6-dihydro-7H-cyclopenta[b]pyridin-7-one] | 30 |
| CN1Cc2ccc(-c3nc(C#N)c(Cl)cc3-c3cnn(CC4(C)CCCC4)c3)cc2C1=O [Example 125, 3-Chloro-6-(2-methyl-3-oxoisoindolin-5-yl)-5-(1-((1-methylcyclopentyl)methyl)-1H-pyrazol-4-yl)picolinonitrile] | 26 |
| C#Cc1ccc(-c2cnn(CC3(C)CCCC3)c2)c(-c2cnc3c(c2)C(=O)N(CC2CC2)C3)n1 [Example 128, 6-(Cyclopropylmethyl)-3-(6-ethynyl-3-(1-((1-methylcyclopentyl)methyl)-1H-pyrazol-4-yl)pyridin-2-yl)-6,7-dihydro-5H-pyrrolo[3,4-b]pyridin-5-one] | 62 |
| CC1(Cn2cc(-c3ccc(C#N)nc3-c3cnc4c(c3)C(=O)N(CCO)C4)cn2)CCCC1 [Example 129, 6-(6-(2-Hydroxyethyl)-5-oxo-6,7-dihydro-5H-pyrrolo[3,4-b]pyridin-3-yl)-5-(1-((1-methylcyclopentyl)methyl)-1H-pyrazol-4-yl)picolinonitrile] | 39 |

Now from value to compound:

| EC50 [nM] | Structure (SMILES) |
| --- | --- |
| 79 | C#CCN1Cc2ncc(-c3nc4c(cc3-c3cnn(CC5(C)CCCC5)c3)CCC4)cc2C1=O [Example 118, 3-(3-(1-((1-methylcyclopentyl)methyl)-1H-pyrazol-4-yl)-6,7-dihydro-5H-cyclopenta[b]pyridin-2-yl)-6-(prop-2-yn-1-yl)-6,7-dihydro-5H-pyrrolo[3,4-b]pyridin-5-one] |
| 26 | C#CCN1Cc2ncc(-c3nc(C#N)ccc3-c3cnn(CC4(C)CCCC4)c3)cc2C1=O [Example 120, 5-(1-((1-methylcyclopentyl)methyl)-1H-pyrazol-4-yl)-6-(5-oxo-6-(prop-2-yn-1-yl)-6,7-dihydro-5H-pyrrolo[3,4-b]pyridin-3-yl)picolinonitrile] |
| 17 | C#CCN1Cc2ccc(-c3nc(C#N)ccc3-c3cnn(CC4(C)CCCC4)c3)cc2C1=O [Example 120A] |
| 71 | Cc1cc(F)c(-c2cnn(CC3(C)CCCC3)c2)c(-c2ccc3c(c2)C(=O)N(C)C3)n1 [Example 126, 6-(4-fluoro-6-methyl-3-(1-((1-methylcyclopentyl)methyl)-1H-pyrazol-4-yl)pyridin-2-yl)-2-methylisoindolin-1-one] |
| 90 | CN1Cc2ccc(-c3nc(F)c(F)cc3-c3cnn(CC4(C)CCCC4)c3)cc2C1=O [Example 127, 6-(5,6-Difluoro-3-(1-((1-methylcyclopentyl)methyl)-1H-pyrazol-4-yl)pyridin-2-yl)-2-methylisoindolin-1-one] |
